A short description of data set [1]: Pharmacokinetics: quantitative determination of compounds in mice plasma. The data set is classed as in vivo, C57BL/6 Mice. Particulars: 10 mg/kg PO single dose, vehicle 10% NMP. Here is the method:
C57BL/6 Mice, Age 7-9 weeks, body weight range 20-25 g were used. The mice were fasted overnight. Mice were dosed once a day for a single day at 10 mg/kg, 10 mg/kg. 6 time-points were used for whole blood. 10% NMP was used as a vehicle. 9 animals were used per treatment, with three groups of three animals each. Group 1 had time points at 15 and 60 minutes, Group 2 had time points at 30 and 120 minutes, and Group 3 had time points at 90 and 240 minutes. An Oral (PO) route was used. Plasma and brain samples were collected (brain sample collected at terminal time point). Plasma was collected through the centrifugation of whole blood at 10,000 rpm for 10 minutes at 4° C. Samples were stored at −80° C. until processing.
1.00 mg/mL in 100% MeOH PP vials (prepared at RT yellow light) at 2-8° C. were used as stock solution. 12.22-50000 ng/mL using 80% MeOH PP vials (prepared at RT yellow light) at 2-8° C. were used as working solution. 0.98-4000 ng/mL (prepared at RT yellow light) was used for the curve range. For Compounds 26, 40, and 50, 1.00 mg/mL of Compound 53 in 100% methanol Ria vials (Prepared at RT yellow light) was used as IS stock solution, and 80 ng/mL of Compound 53 in 80% methanol (Prepared at RT yellow light) was used as IS working solution. For Compound 36, 1.00 mg/mL of Compound 47 in 100% methanol Ria vials (Prepared at RT yellow light) was used as IS stock solution, and 80 ng/mL of Compound 47 in 80% methanol (Prepared at RT yellow light) was used as IS working solution. A linear, 1/×2 fit type was used. The injection volume was 10 μL for Compounds 26 and 36, and 5 μL for Compounds 40 and 50. Mobile Phase A was 0.1% Formic Acid in water at room temperature. Mobile Phase B was 100% methanol at room temperature. R0 wash solution was 80% methanol at room temperature. R3 wash solution was IPA/MeOH/ACN/water (1:1:1:1) at room temperature. The column was Agilent Eclipse 50*2.1 mm 1.8 μm and the instrument was Shimadzu LC-40 UPLC and AB Sciez 6500+ with LCMS002.
Using a pipette, 25 μL of each sample were aliquoted (calibration curve sample, QC samples and blank matrix) to labeled 1.5 ml eppendorf. Using a pipette, 5.0 μL of IS of conc. 80 ng (Cocktail IS) was aliquoted to each standards and samples except Blank. All tubes were mixed on a multi-tube vortex for approximately 30 seconds. 50 μL of 10 mM Sodium bi-carbonate were added. 1 ml of tert-butyl methyl ether (TBME) was added. All tubes were mixed on a multi-tube vortex for approximately 5 minutes then centrifuged for 10 min at 5,000 rpm for Compounds 26 and 36 and at 10,000 rpm for Compounds 40 and 50, 4° C. The sample was kept in methanol containing dry ice for few seconds to freeze the Aqueous layer (flash freeze method). The upper organic layer was poured from the frozen tubes into the labeled 12×75-mm rial vials and evaporated to dryness under nitrogen using Liquid Evaporator (30° C., ˜15 psi, ˜10 mins). 200 μl of reconstitution solution (0.1% Formic Acid: MeOH (20:80 v/v) were added into each tube. Samples were Vortexed for 30 seconds then transferred to amber glass injection vials for injection.
After test item administration, blood samples were collected from individual animals in previously labeled Heparinised blood collection tubes. Blood samples were collected from retro orbital plexus. The time points for collection of blood samples from all the animals are; 0.25, 0.5, 1, 2 and 4 hr. The collected samples were subjected to centrifugation @ 10,000 rpm for 10 minutes at 40° C. for separation of plasma. Thereafter, plasma samples were collected in previously labeled plasma tubes. These were stored at −80° C. until analysis.

For the next data set, the system named is PGC-1α. Description: In vivo PGC-1α expression in liver of LPS-treated mice (ELISA). Set-up: species or system C57BL/6 mice. Particulars: for PGC-1α levels: C57BL/6 mice; for PGC-1α level (%): Control = 100. The method, then:
C57BL/6 mice were procured from Vivo Bio Tech Ltd. Male mice were used for the study within an age range of 7 to 8 weeks. Body weight for these mice ranged from 20 g to 25 g. Animals were housed in a group of 6 in individually ventilated cages with temperature of 22±3° C., a relative humidity of 50 to 60%. The bottom of the cages was layered with sterilized corn cob. Animals were provided with gamma irradiated feed and autoclaved drinking water ad-libitum. The IVCs were maintained at an environment controlled (Centrally Air-Conditioned) room at a temperature of 22±3° C., a relative humidity of 50 to 60%, light intensity of 250-300 lux and a 12 hour light-dark cycle and noise intensity of <85 db.
Method of Preparation: LPS was dosed at 3 mg/kg in a dose volume of 10 ml/kg. For this, 0.3 mg/ml of LPS solution (Micronized suspension) was prepared. Butter paper was placed on analytical balance, tarred and LPS was placed on butter paper and its weight was noted down. LPS was transferred to 15 ml falcon tube. Then required amount of normal saline was added to it to make it 0.3 mg/ml. The solution was vortexed properly for 5 minutes and placed on ice. LPS solution was vortexed every time before aspiration and injection.
LPS was dosed at 3 mg/kg. Each test compound was dosed at 10 mg/kg, 2 hour and 15 min post LPS administration.
0.5% CMC was used as a vehicle with a dose volume of 10 ml/kg. An IP route was used for LPS, and a PO route was used for each test compound. Animals were sacrified 24 hours post LPS dosing, and plasma were collected. PGC-1α level was measured in liver samples, and other tissues were stored for future analysis. PGC-1α level was checked using ELISA kit—CUSABIO Mouse PPARGC1A ELISA kit.
Protocol: One day before start of the experiment C57BL/6 Mice (Male, 6-7-week-old) were randomized on the basis of their body weight and were divided into groups. All the cages were assigned the respective group name. Animals inside each cage were marked on the base of the tails with permanent marker to distinguish each animal. Mice were fasted overnight. Next day morning animals were dosed with test item. Group 1 (Control) and Group 2 (LPS) Animals were dosed with vehicle (0.5% CMC). Test items were prepared in 0.5% CMC by trituration in mortar and pestle and addition of CMC drop by drop. 2 hour post test item/vehicle dosing animals were administered with LPS through IP route at 3 mg/kg of body weight. Group 1 (Control) animals were administered with saline. 0.25 hour post LPS administration, animals were again dosed with test item/vehicle. Post dosing, animals were returned to their respective cages and kept until termination of the study. No feed was offered to any group. Animals were provided with water. 24 hour post LPS administration, blood was collected from each animal under influence of mild isoflurane anesthesia through retro-orbital technique. Animals were sacrificed by CO2 asphyxiation technique. Post-termination, animals were dissected and vital organs, liver, brain, skeleton muscle were collected in Eppendorf tubes and flash frozen in liquid nitrogen. Serum was collected from whole blood by centrifuging it at 4° C. at 10,000 RPM and for 10 minutes. (Blood was left for 2 hour for coagulation before centrifugation) After completion of the experiment, all collected samples were stored at −80° C. until analysis.
Assay Methods/Protocol: The mortar was chilled with liquid nitrogen and then the small tissue pieces were grinded in the presence of liquid nitrogen to a fine powder. Immediately after grinding, transferred small amount of tissue powder to a 1.5 ml micro centrifuge tube containing 1.0 ml lysis buffer (RIPA buffer+Protease inhibitor). The samples were then incubated on ice for 2 hours. The samples were vortexed every 15 minutes. The samples were then centrifuged at 13000×g for 15 minutes at 2-8° C. After centrifugation the supernatant was removed carefully and pellet was discarded. […]
(In general: ELISA stands for enzyme-linked immunosorbent assay.)

Data set [2] relates to PGC-1α expression in C2C12 cells. Description: In vitro PGC-1α expression in C2C12 cells (cell ELISA). Particulars: 5000 cells/well, OD @ 650 nm, DMSO control = 100. The data set is classed as cell-based. Here is the method:
Culture conditions: DMEM containing 25 mM glucose with 10% FBS supplementation; grown at 37° C. and 5% CO2.
Drugs: (+)-Epicatechin, AICAR (direct activator of AMPK).
Assay Conditions: C2C12 cells were cultured in DMEM supplemented in 10% FBS upto 80% confluence. The cells were further trypsinized and seeded into a 96 well plate at a density of 5000 cells/well (well volume—100 μL) (Day 0). Following attachment, the cells were allowed to reach 80-90% confluence in the plate (typically 48 hours post seeding) and further differentiated using DMEM+2% Horse Serum (200 μL/well). The media was changed every day or at least every alternate day for 5 days to allow myoblasts to differentiate into myotubes. On day 7 (post seeding), the cells were treated with standards and test compounds for PGC-1 α assay.
PGC-1α assay: For the detection of PGC-1a, the cells were incubated with 0.5 μg/ml primary antibody (Merck, WH0010891M3) in PBS-T containing 5% BSA at 4° C. overnight. The cells were then washed three times with PBS-T for 5 minutes and incubated with 1:1000 dilution secondary antibody (Anti-rabbit IgG, HRP-linked Antibody, Cell Signaling) in PBS-T with 1% BSA for 1 hour at RT. Cells were washed three times with PBS-T for 5 minutes The cells were incubated with 100 μl TMB substrate solution for 30 minutes and the reaction was stopped with 100 μl of 2N H2SO4. […] (For plate optical density calculations, a background correction was taken at 540 nm). The final PGC-1a activation % is average of activation of 6 replicates.

[3] abbreviates: LPS 3 mg/Kg IP, test compound 10 mg/kg PO BID, liver, 24 hours post LPS.
Where [4] appears, read: LPS 0.25 + 0.5 + 1 mg/kg, test compound 10 mg/kg.

Values joined by “and” are separate entries in the source; they are usually repeats but may differ in a detail not shown here. Equal values may be shown once.

Usually AUC(0-inf) stands for the area under the concentration-time curve extrapolated to infinity. The low end stands for less exposure, the high end for more exposure. The term AUC(0-t) denotes exposure summed from dosing to a finite time, without extrapolation to infinity. Higher therefore signals high exposure. For orientation: Cmax means the highest concentration seen after dosing. A word on the Tmax: it is the time from dosing to the highest level. In turn, `CN(C)C(=O)[C@H]1CCC2C3CCC4=CC(=O)N(C)CC[C@]4(C)C3[C@@H](O)C[C@@]21C` (stereo partly drawn) [Compound 50, (5aR,6S,7aS)-6-hydroxy-N,N,3,5a,7a-pentamethyl-2-oxo-2,3,4,5,5a,5b,6,7,7a,8,9,10,10a,10b,11,12-hexadecahydrocyclopenta[5,6]naphtho[1,2-d]azepine-8-carboxamide] gave a T½ in data set [1] of 25.4 min. For the same molecule, in data set [1] (C57BL/6, mouse), the AUC(0-inf) stood at 2540 ng·h/mL, the AUC(0-t) stood at 2450 ng·h/mL, the Cmax amounted to 2900 ng/mL and the Tmax is 15 min. Also, in the data set with PGC-1α (setting [3]), the PGC-1α levels was 38684 pg/mL and 24206 pg/mL; the “PGC-1α level (%)” value was 110% and 80%. In the data set with PGC-1α (setting [4]), the PGC-1α level was 2632 pg/mL and the “PGC-1α level (%)” value was 40%.
For the molecule `NC(=O)c1ncn([C@@H]2O[C@H](CO)[C@@H](O)[C@H]2O)c1N` [AICAR, 5-aminoimidazole-4-carboxamide-1-β-D-ribofuranoside], the “% Activity (PGC-1α expression)” value in data set [2] (1 mM) was 148% and 140% and 130% and 128%.
As to `Oc1cc(O)c2c(c1)O[C@H](c1ccc(O)c(O)c1)[C@H](O)C2` [Epicatechin, (+)-Epicatechin, reference compound], in the data set with PGC-1α (setting [3]), the PGC-1α levels is 33330 pg/mL and 31729 pg/mL and 21967 pg/mL; the “PGC-1α level (%)” value was 63% and 90% and 72%. In addition, in the data set on PGC-1α (setting [4]), the PGC-1α level stood at 3247 pg/mL and the “PGC-1α level (%)” value worked out at 49%. Further, in data set [2] (0.001 nM), the “% Activity (PGC-1α expression)” value was 129% and 123% and 120% and 122% and 125%.
